Laboratory results published in EP3030673B1, “SCREENING AND IDENTIFICATION OF RESISTANT MARKERS IN CRUSTACEAN” (priority 2013, dated 2015).
Read-outs that look alike come from different tables or passages of the source.

How the values were obtained:
[1] = system: LsHybridV (LsVikna as its maternal strain); assay: Deltamethrin bioassay on adult male sea lice, hybrid strain with resistant maternal strain; type: in vivo, Lepeophtheirus salmonis
Description: In order to hybridise the lice strains for the inheritance experiment, the parental strains were first synchronised and multiplied up in numbers by simultaneously infecting 20 Atlantic salmon with copepods. In total, 1000 copepods per strain were added. At 32 days post infection (dpi), all salmon were anaesthetised and approximately half of the lice were carefully removed using tweezers. At this stage, lice were predominantly preadult 2 females and adult males, with a few percent adult females and preadult 2 males. The lice removed from the salmon were sexed, and then used to create the reciprocal hybrid strains. This was achieved by combining 4-5 females from the resistant strain and 4-5 males from the sensitive strain (LsHybridV), and 4-5 females from the sensitive strain and 4-5 males from the resistant strain (LsHybridG). Only preadult 2 females were used. These combinations were each placed into 2 replicate tanks in order to make two hybrid strains (4 groups and 8 tanks at this stage). At 67-68 dpi, all lice were removed from the four strains. Egg strings were removed from adult females and incubated in containers containing a single strain each. The number of adult lice, and harvested egg strings varied, but all were incubated (Table 2). Table 2. Number of egg strings collected from each strain. Egg strings from replicate tanks were pooled. Most egg strings were part of a pair.
The subsequent generation (F2, Fig. 2) were both produced using the general procedure described above, although the hybrid strains were only crossed back to themselves to create multiple generation-hybrids. Collection of egg strings, which marked the establishment of a new generation, was done at 55 and 56 dpi respectively. Salmon that hosted the previous generation were re-used for reinfection with the next generation, but hosted only the same experimental strain.
(§1) Each strain, including both types of hybrids obtained in example 1 were quantified in their tolerance of deltamethrin at sampling points 1 and 2 representing the F1 and F2 generations for the hybrids (Fig. 1 and 2). Bioassays were performed according to standard guidelines (SEARCH Consortium, 2006, Sea lice resistance to chemotherapeutants: A handbook in resistance management. 2 ed.), with minor modifications. Only adult male lice were used for the bioassay, which after sampling (at 55 or 56 dpi) had been incubated overnight in running seawater (ca. 10 °C). The 30 min exposure to the prepared deltamethrin concentration was also carried out at ca. 10 °C, and higher concentrations than those described in the given protocol were included (Table S3). After exposure to deltamethrin, the lice were kept in running seawater (24 h at ca. 10 °C) until evaluation of the bioassays. […] EC50 values were calculated using probit analysis (PoloPlus 2.0; LeOra Software, CA, USA). Table 3a. Deltamethrin bioassays performed on sampling set 1

[2] = system: LsGulen (pyrethroid sensitive strain); type: in vivo, Lepeophtheirus salmonis
Text: In order to investigate the inheritance and mechanism of pyrethroid resistance in L. salmonis, two strains (sensitive and resistant) and their reciprocal hybrids were used for a two-generation breeding experiment complimented with bioassays to measure tolerance (Fig. 2). The pyrethroid sensitive strain (hereon also referred to as LsGulen) was collected in June 2006 from newly slaughtered rainbow trout from Gulen in western Norway. The pyrethroid resistant strain (hereon also referred to as LsVikna) was collected in February 2009 from a salmon farm in Vikna, North Trøndelag, Norway. The resistant strain was collected on the basis of suspected reduced sensitivity to pyrethroids due to the fact that there had been reported a treatment failure on the farm from which it was collected. This was subsequently confirmed in bioassays with LsGulen as sensitive control.
as §1, with “Deltamethrin bioassays performed on sampling set 1” left out

CC1(C)[C@H](C(=O)O[C@H](C#N)c2cccc(Oc3ccccc3)c2)[C@@H]1C=C(Br)Br [Deltamethrin, deltamethrin]
survival of the bioassay ([1]; above 1 ppb, maternal hybrid strain of the resistant strain): survived the bioassay | % Inactive ([1]; sampling set 1, F1, fish tank 02, dose 0.1 ppb): 0% | % Inactive ([1]; sampling set 1, F1, fish tank 02, dose 0.3 ppb): 0% | % Inactive ([1]; sampling set 1, F1, fish tank 02, dose 1 ppb): 5% | % Inactive ([1]; sampling set 1, F1, fish tank 02, dose 3 ppb): 13% | % Inactive ([1]; sampling set 1, F1, fish tank 02, dose 6 ppb): 5% | % Inactive ([1]; sampling set 1, F1, fish tank 02, dose 12 ppb): 31% | % Inactive ([1]; sampling set 1, F1, fish tank 06, dose 0.1 ppb): 0% | % Inactive ([1]; sampling set 1, F1, fish tank 06, dose 0.3 ppb): 0% | % Inactive ([1]; sampling set 1, F1, fish tank 06, dose 1 ppb): 7% | % Inactive ([1]; sampling set 1, F1, fish tank 06, dose 3 ppb): 2% | % Inactive ([1]; sampling set 1, F1, fish tank 06, dose 6 ppb): 9% | % Inactive ([1]; sampling set 1, F1, fish tank 06, dose 12 ppb): 32% | % Inactive ([1]; sampling set 2, F2, fish tank 06, dose 0.1 ppb): 0% | % Inactive ([1]; sampling set 2, F2, fish tank 06, dose 0.3 ppb): 0% | % Inactive ([1]; sampling set 2, F2, fish tank 06, dose 0.5 ppb): 0% | % Inactive ([1]; sampling set 2, F2, fish tank 06, dose 1 ppb): 0% | % Inactive ([1]; sampling set 2, F2, fish tank 06, dose 3 ppb): 16% | % Inactive ([1]; sampling set 2, F2, fish tank 06, dose 6 ppb): 14% | % Inactive ([1]; sampling set 2, F2, fish tank 06, dose 12 ppb): 21% | % Inactive ([1]; sampling set 2, F2, fish tank 06, dose 20 ppb): 40% | % Inactive ([1]; sampling set 2, F2, fish tank 09, dose 0.1 ppb): 14% | % Inactive ([1]; sampling set 2, F2, fish tank 09, dose 0.3 ppb): 0% | % Inactive ([1]; sampling set 2, F2, fish tank 09, dose 0.5 ppb): 3% | % Inactive ([1]; sampling set 2, F2, fish tank 09, dose 1 ppb): 5% | % Inactive ([1]; sampling set 2, F2, fish tank 09, dose 3 ppb): 0% | % Inactive ([1]; sampling set 2, F2, fish tank 09, dose 6 ppb): 19% | % Inactive ([1]; sampling set 2, F2, fish tank 09, dose 12 ppb): 8% | % Inactive ([1]; sampling set 2, F2, fish tank 09, dose 20 ppb): 54% | mortality ([2]; above 1 ppb, sensitive strain): 100% | % Inactive ([2]; sampling set 1, F15, fish tank 04, dose 0.1 ppb): 0% | % Inactive ([2]; sampling set 1, F15, fish tank 04, dose 0.3 ppb): 48% | % Inactive ([2]; sampling set 1, F15, fish tank 04, dose 1 ppb): 100% | % Inactive ([2]; sampling set 1, F15, fish tank 04, dose 3 ppb): 100% | % Inactive ([2]; sampling set 1, F15, fish tank 04, dose 6 ppb): 100% | % Inactive ([2]; sampling set 1, F15, fish tank 04, dose 12 ppb): 100% | % Inactive ([2]; sampling set 1, F15, fish tank 10, dose 0.1 ppb): 0% | % Inactive ([2]; sampling set 1, F15, fish tank 10, dose 0.3 ppb): 50% | % Inactive ([2]; sampling set 1, F15, fish tank 10, dose 1 ppb): 100% | % Inactive ([2]; sampling set 1, F15, fish tank 10, dose 3 ppb): 100% | % Inactive ([2]; sampling set 1, F15, fish tank 10, dose 6 ppb): 100% | % Inactive ([2]; sampling set 1, F15, fish tank 10, dose 12 ppb): 100% | % Inactive ([2]; sampling set 2, F16, fish tank 03, dose 0.1 ppb): 5% | % Inactive ([2]; sampling set 2, F16, fish tank 03, dose 0.3 ppb): 48% | % Inactive ([2]; sampling set 2, F16, fish tank 03, dose 0.5 ppb): 86% | % Inactive ([2]; sampling set 2, F16, fish tank 03, dose 1 ppb): 100% | % Inactive ([2]; sampling set 2, F16, fish tank 03, dose 3 ppb): 100% | % Inactive ([2]; sampling set 2, F16, fish tank 03, dose 6 ppb): 100% | % Inactive ([2]; sampling set 2, F16, fish tank 04, dose 0.1 ppb): 8% | % Inactive ([2]; sampling set 2, F16, fish tank 04, dose 0.3 ppb): 55% | % Inactive ([2]; sampling set 2, F16, fish tank 04, dose 0.5 ppb): 95% | % Inactive ([2]; sampling set 2, F16, fish tank 04, dose 1 ppb): 100% | % Inactive ([2]; sampling set 2, F16, fish tank 04, dose 3 ppb): 100% | % Inactive ([2]; sampling set 2, F16, fish tank 04, dose 6 ppb): 100% | % Inactive ([2]; sampling set 2, F16, fish tank 04, dose 12 ppb): 100%
